Test results published in US20060094676A1, “Compositions and methods for treating cancer using compositions comprising an inhibitor of endothelin receptor activity” (priority 2004, published 2006).
Entries after “also recorded” stand apart in the source; their conditions may differ.

Key:
[1] = test system: kidney cells; experiment: MTS assay, number of viable cells; assay type: cell-based; conditions: high concentrations of BQ788
[2] = test system: SK-MEL-28 and LN-met cell lines; experiment: cDNA microarray analysis of differentially regulated genes; assay type: cell-based, human; conditions: SK-MEL-28 and LN-met after 2 days BQ788, confirmed by real-time RT-PCR
Procedure: Cells were cultured in the presence of BQ788 or its solvent (HCO60) for 2 days and then lysed and subjected to RNA extraction using SV Total RNA isolation kit (Promega). Two rounds of RNA amplification were conducted using RiboAmp™ RNA Amplification kit (Arcturus). Labeled cDNA was obtained by reverse transcription of 6 μl amplified RNA and incorporation of Cy3-dCTP (5-Amino-propargyl-2′-dexoycytidine 5′-triphosphate coupled to Cy3 fluorescent dye) and Cy5-dCTP (5-Amino-propargyl-2′-dexoycytidine 5′-triphosphate coupled to Cy5 fluorescent dye) (Amersham Biosciences). Human 10k arrays containing PCR products spotted onto glass slides were obtained from the Lausanne DNA Array Facility (DAF). Hybridization of labeled cDNA to microarrays was preformed for 16 h at 64° C. in a humidified chamber (Corning Costar). Scanning was done in a Scanarray 4000 scanner (Perkin Elmer). Image analysis was preformed using the ScanAlyse program (version 2.5). Data analysis was done using the R package: Statistics for Microarray analysis containing com.braju.sma package (www.r-project.org).
To explore the possible mechanisms that underlie the loss of viability of metastatic but not primary melanoma cells in response to ETRB antagonism, changes in gene expression profiles of BQ788-treated and untreated cells were investigated by cDNA microarray analysis. […]

[3] = test system: PARP-3; experiment: Real-time RT-PCR of PARP-3 transcripts; assay type: cell-based, human; conditions: primary melanoma cells; BQ788 treatment
Procedure: Equal amounts of RNA from cells that were treated with BQ788 for 3 days were subjected to real-time RT-PCR analysis for the detection of BCL-2A1 (A) and ADP ribosyltransferase 3 (B) transcripts. Total amounts are represented in A while relative (to control) values are shown in B. Differences in expression levels are shown as x fold decrease and are statistically significant (p<0.05) unless a column in marked as non significant (N.S.). Lysates of BQ788 treated cells and controls were subjected to an apoptosis ELISA detection test (C). SK-MEL-28 cells were cultured with pan caspase inhibitor (D) or with caspase 6 inhibitor (E) with or without BQ788 for 2.5 days. […] SK-MEL-28 cells were cultured for 3 days in the presence of BQ788 and assayed for caspase 6 activity (F). The difference between the columns is statistically significant (p<0.05).
RNA was prepared from the different cell lines in different culture conditions using SV total RNA isolation kit (Promega) according to the manufacturer's protocol. For each sample RNA concentration was determined using the total RNA nano procedure of an Agilent bioanalyzer. […] A standard curve of Ct versus RNA quantity was established and accordingly the Ct in the unknown samples was correlated to quantity of transcript. […]

CCCC[C@@H](NC(=O)[C@@H](Cc1cn(C(=O)OC)c2ccccc12)NC(=O)[C@H](CC(C)(C)C)NC(=O)N1[C@H](C)CCC[C@@H]1C)C(=O)O [BQ788, N-cis-2,6-dimethylpiperidinocarbonyl-L-γ-methylleucyl-D-1-methoxycarbonyltrptophanyl-D-norleucine]
number of kidney cells [1]: not reduced | Down regulated gene [2]: BCL2-A1; also recorded: PARP-3; also recorded: Gravin; also recorded: EDNRB | Up regulated gene [2]: VEGF and HIF-1α | PARP-3 levels [3]: did not show a decrease
